Test [1] concerns model animals of ulcerative colitis (3% DSS). In words: Therapeutic experiment using model animals of ulcerative colitis (Example 4). In kind it is in vivo, C57BL6 mice. The conditions noted are these: DSS mice, compound 1 mg/kg/day. The method, then:
To C57BL6 mice of 8 weeks old, 3% DSS (dextran sulfate sodium)-containing water or water (control) was administered by allowing the mice to drink it for 7 days. For the mice to which DSS was administered, groups in which 5-ASA (compound name: 5-aminosalicylic acid; generic name: Mesalazine), which is a therapeutic agent for inflammatory bowel diseases, the compound synthesized in Example 2-7 (H-31), or the compound synthesized in Example 2-36 (H-179) was administered, and a group in which no compound was administered were provided. On Day 7 after the beginning of the administration, the body weight of each mouse was measured, and the large intestine was removed from the mouse, followed by carrying out histological study. […] In FIGS. 4(A) and (B), “normal” indicates a case where water was administered, and “DSS” indicates cases where DSS-containing water was administered. “non” indicates a case where no compound was administered, and “5-ASA”, “H-31”, and “H-179” indicate cases where the respective compounds were administered. The dose was as follows: 5-ASA, 300 mg/kg/day; H-31, 1 mg/kg/day; H-179, 1 mg/kg/day. As shown in FIG. 4(A), weight loss due to inflammation of the intestine was found in the cases where DSS was administered.

The test system of test [2] is NASH model mice. The experiment in a line: Therapeutic experiment for NASH in MCDD-fed NASH model mice (Example 8). As to conditions: NASH mice fed MCDD 8 weeks, intraperitoneal 2.5 mg/kg/day 3 times a week. In kind it is in vivo, mice (C57BL/6J). The method, then: In order to test the therapeutic effect of a compound of the present invention on non-alcoholic steatohepatitis (NASH), an animal experiment using NASH model mice was carried out.
The NASH model mice (hereinafter referred to as “NASH mice”) were prepared by feeding male individuals of laboratory mice (C57BL/6J) with methionine-choline-deficient diet (MCDD) for 8 weeks to allow accumulation of fat in the liver. The animal experiment was carried out for a group in which a compound of the present invention (H-31) was intraperitoneally administered 3 times a week at 2.5 mg/kg/day during the 8 weeks of the MCDD feeding period, and a group in which no administration was carried out. In addition, in order to provide control mice, male individuals of laboratory mice (C57BL/6J) were fed with normal diet for 8 weeks.
The results of measurement of the blood AST (GOT) level and the blood ALT (GPT) level in these mice are shown in FIGS. 8(A) and (B), respectively.

The subject of test [3] is model animals of ulcerative colitis (3% DSS). In words: Therapeutic experiment using model animals of ulcerative colitis 2 (Example 6). In kind it is in vivo, C57BL6 mice. The conditions noted are these: DSS mice, 1 mg/kg/day.
Protocol: To C57BL6 mice of 8 weeks old, 3% DSS (dextran sulfate sodium)-containing water or water (control) was administered by allowing the mice to drink it for 7 days. […] On Day 7 after the beginning of the administration, the body weight of each mouse was measured, and the large intestine was removed from the mouse, followed by carrying out histological study. […] In addition, an experiment for measuring the colon length was carried out.
Test [4] has as its system model animals of ulcerative colitis (DSS). The experiment in a line: Comparison between oral and intraperitoneal administration in DSS mice (Example 5). The conditions noted are these: 1 mg/kg/day. In kind it is in vivo. Here is the method: A compound whose therapeutic effect on ulcerative colitis could be confirmed in Example 4 (H-31) was studied on the difference in its effect depending on the administration method. […] In FIGS. 5(A) and (B), “normal” indicates a case where water was administered, and “DSS” indicates cases where DSS-containing water was administered. “non” indicates a case where no compound was administered, and “H-31” indicates a case where the compound synthesized in Example 2-7 was administered.

Test [5] has as its system Pin1 protein. In words: Confirmation of Pin1 expression level in the intestinal tract of DSS mice (Example 7). In kind it is in vivo. As to conditions: after 7 days of administration. The method, then:
The expression level of Pin1 in the intestinal tract was measured for each mouse subjected to the therapeutic experiment in Example 5.
The present results also support that the compound synthesized in Example 2-7 (H-31) prevents development of ulcerative colitis.

The subject of test [6] is colon cancer model mice. In words: Therapeutic experiment for colon cancer in AOM/DSS colon cancer model mice (Example 9). The conditions noted are these: oral 1.25 mg/kg/day 3 times a week from Day 6, Day 89, vs control. The test is classed as in vivo. The method, then: On Day 1, azoxymethane (AOM) was intraperitoneally administered at 12 mg/kg to laboratory mice. Thereafter, from Day 6, a course of 5 days of oral administration of 3% dextran sulfate sodium (DSS) and a period of 16 days without administration of DSS was repeated 4 times to prepare colon cancer model mice having cancer caused by inflammation of the large intestine. A group in which a compound of the present invention (H-31) was administered and a group without administration of the compound of the present invention (control) were provided. In the group in which the compound of the present invention (H-31) was administered, oral administration was carried out 3 times a week at 1.25 mg/kg/day from Day 6.
On Day 89, the colon cancer model mice were dissected, and the number of colon cancer developed and the tumor area per colon cancer (total tumor area/number of tumors) were measured.

The target in test [7] is T1, Pin1 (Homo sapiens, UniProt Q13526).
T1 construct: endogenous in cells; host or cells: 293T cells
In words: Evaluation of inhibitory activity on function of Pin1: cell assay using degree of AMPK phosphorylation as index. The conditions noted are these: 293T cells. On the set-up: key to Pin1 inhibitory activity: −: Promotion of AMPK phosphorylation was not (or hardly) found.; +: Phosphorylation of AMPK was promoted, but the promotion was weaker than that by C1.; ++: Phosphorylation of AMPK was promoted to the same degree as in the case of C1.; +++: Phosphorylation of AMPK was promoted more strongly than in the case of C1. In kind it is cell-based. The method, then: In order to evaluate the inhibitory activities of the compounds of the present invention synthesized in Example 2 on the function of Pin1, an assay using cells was carried out according to a method previously developed by the present inventors (Yusuke Nakatsu et al., Journal of Biological Chemistry, 2015, Vol. 290, No. 40, pp. 24255-24266), using as an index the degree of phosphorylation of AMPK (AMP-activated protein kinase), whose phosphorylation is known to be suppressed by Pin1.
Briefly, 293T cells were plated on a 24-well plate coated with collagen. Forty-eight hours later, each compound (100 μM) synthesized in the Example was added to the plate, and the plate was left to stand in an incubator for 30 minutes. Thereafter, 10 mM 2-DG was added to the plate, and, 1 hour later, each sample was collected using a buffer containing mercaptoethanol and SDS.
According to conventional methods, SDS-PAGE and blotting were carried out, and then blocking was carried out with 3% BSA for 1 hour. Thereafter, reaction was carried out at normal temperature for 1 hour with each of a pAMPK antibody (Cell signaling 1:2000, Can get signal solution 1: diluted by Toyobo) as a primary antibody, and an HRP-linked anti rabbit IgG (GE healthcare 1:4000, Can get signal solution 2: diluted by Toyobo) as a secondary antibody, to perform detection.
As a compound to be compared, C1: (R)-2-(5-(4-methoxyphenyl)-2-methylfuran-3-carboxamido)-3-(naphthalene-6-yl)propanoic acid, which is an already reported Pin1 inhibitor, was used.
In FIG. 3, “-” indicates the degree of phosphorylation of AMPK in a case where no Pin1 inhibitor was added, and “C1”, “H-30”, “H-31”, “H-32”, and “H-33” indicate the degrees of phosphorylation of AMPK in cases where the respective Pin1 inhibitors were added. […] The inhibitory activity on the function of Pin1 was rated as follows based on comparison with the degree of inhibition by C1.

T1 sequence (Q13526 whole entry): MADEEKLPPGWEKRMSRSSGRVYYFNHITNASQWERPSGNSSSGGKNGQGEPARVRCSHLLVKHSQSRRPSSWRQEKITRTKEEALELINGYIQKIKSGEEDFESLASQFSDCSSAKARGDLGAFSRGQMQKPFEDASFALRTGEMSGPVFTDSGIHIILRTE

As to `O=C(O[C@H](Cc1ccc2ccccc2c1)C(=O)O)C1c2ccccc2-c2ccccc21` [Compound H-31], in test [1] (Day 7), the “tissue damage in the large intestine (stained section)” value was “tissue damage in the large intestine was hardly found”. For the same compound, in test [1] (Day 7, vs no compound), the “weight loss (body weight as ratio to body weight before administration)” value is recorded as “the weight loss was significantly smaller”. Besides, in test [2], the “blood ALT (GPT) level” value is “the ALT value decreased”, the “blood AST (GOT) level” value was “the AST value decreased” and the “fibrosis of liver tissue (Azan staining)” value was “fibrosis of liver tissue was remarkably suppressed”. In addition, the “tissue damage in the large intestine (stained section)” value in test [3] is “tissue damage in the large intestine was hardly found”. Further, in test [3] (vs no compound), the “change in the colon length” value is given as “the change in the colon length was significantly smaller” and the weight loss result is “the weight loss was significantly smaller”. Besides, the body weight change entry in test [4] (intraperitoneal administration) is “no significant difference was found”. In test [4] (oral administration), the body weight change entry is listed as “a significant decrease in the body weight change”. In addition, in test [5], the “increase in the Pin1 protein level in the intestinal tract” value is “could be significantly ameliorated”. Moreover, in test [6], the “number of colon cancer developed” value was “no significant difference in the number of colon cancer” and the “tumor area per colon cancer (total tumor area/number of tumors)” value is “reduction of the tumor area could be found”. For the same compound, the Pin1 inhibitory activity entry in test [7] (compound 100 μM, 10 mM 2-DG, pAMPK immunoblot rated by comparison with C1) is “+++”. The “inhibitory activity on Pin1 (stated in words)” value in test [7] (cell-based experiment, 100 μM) was “both have inhibitory activities on Pin1”.
